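A five-concentration, 48-hour dose response in 96-well plates underlies each endpoint, interpolated linearly between surrounding concentrations. GI50 marks 50% less growth.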 Calls of active or inactive are those of the source. No stated cut-off is given here; in the data, active = GI50 up to about 1.1 µM and inactive = higher.
Columns and labels:
Assay in all cases: DTP human tumour cell line panel, 48 h
KM-20L2 = tested on: KM-20L2
OVCAR-4 = tested on: OVCAR-4
SK-MEL-5 = tested on: SK-MEL-5
NCI-H23 = tested on: NCI-H23
XF498 = tested on: XF498
SW-620 = tested on: SW-620
CCRF-CEM = tested on: CCRF-CEM
SNB-78 = tested on: SNB-78
M19-MEL = tested on: M19-MEL
KM12 = tested on: KM12
Malme-3M = tested on: Malme-3M
HOP-92 = tested on: HOP-92
SK-MEL-28 = tested on: SK-MEL-28
MOLT-4 = tested on: MOLT-4
DLD-1 = tested on: DLD-1
SNB-19 = tested on: SNB-19
HL-60 = tested on: HL-60
786-0 = tested on: 786-0
DMS-114 = tested on: DMS-114
A549 = tested on: A549
HCT-15 = tested on: HCT-15
U-251 = tested on: U-251
DMS-273 = tested on: DMS-273
K562 = tested on: K562
SNB-75 = tested on: SNB-75
EKVX = tested on: EKVX
HT-29 = tested on: HT-29
SF-295 = tested on: SF-295
SK-MEL-2 = tested on: SK-MEL-2
SK-OV-3 = tested on: SK-OV-3
LXFL 529 = tested on: LXFL 529
UACC-62 = tested on: UACC-62
RXF 393 = tested on: RXF 393
RPMI-8226 = tested on: RPMI-8226
SN12C = tested on: SN12C
HCT-116 = tested on: HCT-116
HOP-62 = tested on: HOP-62
ACHN = tested on: ACHN
NCI-H522 = tested on: NCI-H522
UO-31 = tested on: UO-31
OVCAR-3 = tested on: OVCAR-3
IGROV-1 = tested on: IGROV-1
SF-268 = tested on: SF-268
TK-10 = tested on: TK-10
OVCAR-8 = tested on: OVCAR-8
UACC-257 = tested on: UACC-257
HCC 2998 = tested on: HCC 2998
NCI-H226 = tested on: NCI-H226
NCI-H460 = tested on: NCI-H460
SR = tested on: SR
LOX IMVI = tested on: LOX IMVI
M14 = tested on: M14
COLO 205 = tested on: COLO 205
SF-539 = tested on: SF-539
CAKI-1 = tested on: CAKI-1
OVCAR-5 = tested on: OVCAR-5
A498 = tested on: A498
HOP-18 = tested on: HOP-18

Q: `O=C(CCN1CCCC1)CC(c1ccccc1)c1c(O)c2ccccc2oc1=O` (stereo unspecified) was tested. Which GI50 (KM-20L2) did it give?
A: > 100 µM (inactive)

Q: And the GI50 (OVCAR-4)?
A: > 100 µM (inactive)

Q: And the GI50 (SK-MEL-5)?
A: > 100 µM (inactive)

Q: And the GI50 (NCI-H23)?
A: > 100 µM (inactive)

Q: What about the GI50 (XF498) of the same compound?
A: > 100 µM (inactive)

Q: What about the GI50 (SW-620) of the same compound?
A: > 100 µM (inactive)

Q: And the GI50 (CCRF-CEM)?
A: > 100 µM (inactive)

Q: And the GI50 (SNB-78)?
A: > 100 µM (inactive)

Q: And the GI50 (M19-MEL)?
A: > 100 µM (inactive)

Q: And the GI50 (KM12)?
A: > 100 µM (inactive)

Q: And the GI50 (Malme-3M)?
A: > 100 µM (inactive)

Q: What about the GI50 (HOP-92) of the same compound?
A: 20.1 µM (inactive)

Q: What about the GI50 (SK-MEL-28) of the same compound?
A: > 100 µM (inactive)

Q: And the GI50 (MOLT-4)?
A: > 100 µM (inactive)

Q: What about the GI50 (DLD-1) of the same compound?
A: > 100 µM (inactive)

Q: What about the GI50 (SNB-19) of the same compound?
A: > 100 µM (inactive)

Q: What about the GI50 (HL-60) of the same compound?
A: > 100 µM (inactive)

Q: What about the GI50 (786-0) of the same compound?
A: > 100 µM (inactive)

Q: What about the GI50 (DMS-114) of the same compound?
A: > 100 µM (inactive)

Q: What about the GI50 (A549) of the same compound?
A: > 100 µM (inactive)

Q: And the GI50 (HCT-15)?
A: > 100 µM

Q: And the GI50 (U-251)?
A: > 100 µM (inactive)

Q: What about the GI50 (DMS-273) of the same compound?
A: > 100 µM (inactive)

Q: What about the GI50 (K562) of the same compound?
A: > 100 µM (inactive)

Q: What about the GI50 (SNB-75) of the same compound?
A: > 100 µM (inactive)

Q: What about the GI50 (EKVX) of the same compound?
A: > 100 µM (inactive)

Q: What about the GI50 (HT-29) of the same compound?
A: > 100 µM (inactive)

Q: What about the GI50 (SF-295) of the same compound?
A: > 100 µM (inactive)

Q: What about the GI50 (SK-MEL-2) of the same compound?
A: > 100 µM (inactive)

Q: And the GI50 (SK-OV-3)?
A: > 100 µM (inactive)

Q: What about the GI50 (LXFL 529) of the same compound?
A: > 100 µM (inactive)

Q: What about the GI50 (UACC-62) of the same compound?
A: > 100 µM (inactive)

Q: What about the GI50 (RXF 393) of the same compound?
A: > 100 µM (inactive)

Q: And the GI50 (RPMI-8226)?
A: > 100 µM (inactive)

Q: What about the GI50 (SN12C) of the same compound?
A: > 100 µM (inactive)

Q: What about the GI50 (HCT-116) of the same compound?
A: > 100 µM (inactive)

Q: What about the GI50 (HOP-62) of the same compound?
A: > 100 µM (inactive)

Q: What about the GI50 (ACHN) of the same compound?
A: > 100 µM (inactive)

Q: What about the GI50 (NCI-H522) of the same compound?
A: > 100 µM (inactive)

Q: What about the GI50 (UO-31) of the same compound?
A: > 100 µM (inactive)

Q: What about the GI50 (OVCAR-3) of the same compound?
A: > 100 µM (inactive)

Q: What about the GI50 (IGROV-1) of the same compound?
A: > 100 µM (inactive)

Q: What about the GI50 (SF-268) of the same compound?
A: > 100 µM (inactive)

Q: And the GI50 (TK-10)?
A: > 100 µM (inactive)

Q: What about the GI50 (OVCAR-8) of the same compound?
A: > 100 µM (inactive)

Q: What about the GI50 (UACC-257) of the same compound?
A: > 100 µM (inactive)

Q: What about the GI50 (HCC 2998) of the same compound?
A: > 100 µM (inactive)

Q: What about the GI50 (NCI-H226) of the same compound?
A: > 100 µM (inactive)

Q: What about the GI50 (NCI-H460) of the same compound?
A: > 100 µM (inactive)

Q: What about the GI50 (SR) of the same compound?
A: > 100 µM (inactive)

Q: And the GI50 (LOX IMVI)?
A: > 100 µM (inactive)

Q: And the GI50 (M14)?
A: > 100 µM (inactive)

Q: What about the GI50 (COLO 205) of the same compound?
A: > 100 µM (inactive)

Q: Which GI50 (KM-20L2) does the source give for `CCCCn1c2ccccc2c2ccc3c(c21)C(=O)C=CC3=O` here?
A: > 100 µM (inactive)

Q: And the GI50 (OVCAR-4)?
A: > 100 µM (inactive)

Q: And the GI50 (SK-MEL-5)?
A: > 100 µM (inactive)

Q: What about the GI50 (NCI-H23) of the same compound?
A: > 100 µM (inactive)

Q: And the GI50 (SW-620)?
A: > 100 µM (inactive)

Q: And the GI50 (SNB-78)?
A: > 100 µM (inactive)

Q: What about the GI50 (M19-MEL) of the same compound?
A: 0.185 µM (active)

Q: What about the GI50 (KM12) of the same compound?
A: > 100 µM (inactive)

Q: And the GI50 (Malme-3M)?
A: > 100 µM (inactive)

Q: And the GI50 (HOP-92)?
A: > 100 µM (inactive)

Q: What about the GI50 (SK-MEL-28) of the same compound?
A: > 100 µM (inactive)

Q: What about the GI50 (MOLT-4) of the same compound?
A: 54.8 µM (inactive)

Q: What about the GI50 (DLD-1) of the same compound?
A: > 100 µM (inactive)

Q: And the GI50 (SNB-19)?
A: > 100 µM (inactive)

Q: What about the GI50 (786-0) of the same compound?
A: > 100 µM (inactive)

Q: What about the GI50 (DMS-114) of the same compound?
A: > 100 µM (inactive)

Q: And the GI50 (A549)?
A: > 100 µM (inactive)

Q: What about the GI50 (HCT-15) of the same compound?
A: > 100 µM

Q: What about the GI50 (U-251) of the same compound?
A: > 100 µM (inactive)

Q: What about the GI50 (DMS-273) of the same compound?
A: > 100 µM (inactive)

Q: And the GI50 (K562)?
A: 84.3 µM (inactive)

Q: What about the GI50 (SNB-75) of the same compound?
A: 0.0521 µM (active)

Q: And the GI50 (HT-29)?
A: 0.991 µM (active)

Q: And the GI50 (SF-539)?
A: > 100 µM (inactive)

Q: And the GI50 (SF-295)?
A: > 100 µM (inactive)

Q: And the GI50 (SK-MEL-2)?
A: > 100 µM (inactive)

Q: And the GI50 (SK-OV-3)?
A: > 100 µM (inactive)

Q: What about the GI50 (CAKI-1) of the same compound?
A: > 100 µM (inactive)

Q: And the GI50 (LXFL 529)?
A: > 100 µM (inactive)

Q: And the GI50 (UACC-62)?
A: > 100 µM (inactive)

Q: And the GI50 (RPMI-8226)?
A: > 100 µM (inactive)

Q: What about the GI50 (SN12C) of the same compound?
A: > 100 µM (inactive)

Q: What about the GI50 (HCT-116) of the same compound?
A: > 100 µM (inactive)

Q: What about the GI50 (HOP-62) of the same compound?
A: > 100 µM (inactive)

Q: And the GI50 (ACHN)?
A: > 100 µM (inactive)

Q: What about the GI50 (NCI-H522) of the same compound?
A: > 100 µM (inactive)

Q: What about the GI50 (UO-31) of the same compound?
A: 62.2 µM (inactive)

Q: And the GI50 (OVCAR-3)?
A: > 100 µM (inactive)

Q: What about the GI50 (IGROV-1) of the same compound?
A: > 100 µM (inactive)

Q: What about the GI50 (SF-268) of the same compound?
A: > 100 µM (inactive)

Q: What about the GI50 (TK-10) of the same compound?
A: > 100 µM (inactive)

Q: And the GI50 (OVCAR-8)?
A: > 100 µM (inactive)

Q: What about the GI50 (UACC-257) of the same compound?
A: > 100 µM (inactive)

Q: What about the GI50 (HCC 2998) of the same compound?
A: > 100 µM (inactive)

Q: And the GI50 (NCI-H226)?
A: > 100 µM (inactive)

Q: What about the GI50 (NCI-H460) of the same compound?
A: > 100 µM (inactive)

Q: What about the GI50 (OVCAR-5) of the same compound?
A: > 100 µM (inactive)

Q: And the GI50 (A498)?
A: > 100 µM (inactive)

Q: What about the GI50 (SR) of the same compound?
A: > 100 µM (inactive)

Q: And the GI50 (LOX IMVI)?
A: > 100 µM (inactive)

Q: What about the GI50 (HOP-18) of the same compound?
A: > 100 µM (inactive)

Q: What about the GI50 (M14) of the same compound?
A: > 100 µM (inactive)

Q: What about the GI50 (COLO 205) of the same compound?
A: > 100 µM (inactive)

— ChEMBL document CHEMBL1201862, “PubChem BioAssay data set” (2004)
